Test results: patent publication US20090312250A1 (POSTECH ACADEMY-INDUSTRY FOUNDATION, priority 2006, published 2009)

Experiments:
[1] = tested on: MIN6 cells; test: Insulin secretion assay in MIN6 cells; assay type: cell-based, mouse; settings: for effect on EGF-induced insulin secretion: pre-treatment, then 15 nM EGF for 1 min, butanols 0.4%, 10 min
Procedure: Cell Culture The mouse insulin-producing cells MIN6m9 provided by Dr. Susumu Seino (Division of Cellular and Molecular Medicine, Kobe University Graduate School of Medicine, Kobe, Japan) were used between passages 19 and 25 and cultured in DMEM containing 25 mM glucose, 10 mM HEPES, 10% (v/v) fetal calf serum, 50 IU/ml penicillin, and 50 μg/ml streptomycin at 37° C. in a humidified CO2-controlled (5%) incubator. MIN6 cells were transfected using LipofectAMINE, as described previously (Kim et al., J Immunol 163:5462-5470, 1999) Transfection efficiency is about 30-40% by using LipofectAMINE.
(§1) Insulin Secretion Assay: Batches of 10-15 isolated islets or 1×10^6 cells/well grown in 12- or 24-well plates were washed twice with KRB supplemented with 0.2% bovine serum albumin (BSA), and then incubated for 60 min at 37° C. in the KRB solution. We used same number of islets in a same set of experiment. At the end of incubation, the solutions were replaced with fresh KRB containing test reagents and incubated for the designated time. The incubation medium was sampled and centrifuged to remove cells, and the supernatant was assayed for insulin with a radioimmunoassay (RIA) kit (Linco, St. Louis, Mo.).
The MIN6 cells were plated onto 24-well plates and grown for 24 h. The cells were washed twice with KRB supplemented with 0.2% BSA, and then incubated for 60 min at 37° C. in the KRB solution.
The incubation medium was sampled and centrifuged to remove cells, and the supernatant was assayed for insulin levels. The data shown are the mean±S.D. from two independent assays by duplicate. *, P<0.05 compared with not treated (NT) cells.
The incubation medium was sampled and centrifuged to remove cells, and the supernatant was assayed for insulin levels. The data shown are the mean±S.D. from two independent assays by duplicate. *, P<0.05 compared with not treated cells.
The incubation medium was sampled and centrifuged to remove cells, and the supernatant was assayed for insulin levels. The data shown are the mean±S.D. from two independent assays by duplicate. * or **, P<0.05 compared with 2.7 or 11 mM glucose-treated cells.
The incubation medium was sampled and centrifuged to remove cells, and the supernatant was assayed for insulin levels.
In FIG. 3B, the MIN6 cells were plated onto 24-well plates and grown for 24 h. The cells were washed twice with KRB supplemented with 0.2% BSA, and then incubated for 60 min at 37° C. in the KRB solution. […] The incubation medium was sampled and centrifuged to remove cells, and the supernatant was assayed for insulin levels.

[2] = tested on: PLD; test: PLD activity assay in MIN6 cells (PBt formation); assay type: cell-based, mouse; settings: for effect on EGF-induced PLD activity: 30 min pre-incubation, then 15 nM EGF for 1 min
Procedure: PLD Activity Assay in Cells: Cells grown in 6-well plates were washed twice with KRB, and then labeled with [3H]myristic acid for 4 h at 37° C. in the KRB solution. PLD activity was assayed by measuring the formation of phosphatidylbutanol (PBt) (Kim J H et al., J Immunol 163:5462-5470, 1999). The intensities of PBt spots in the presence of 0.4% 1-butanol were measured, and PLD activity was obtained by subtracting the corresponding intensities of spots obtained in the absence of 1-butanol.
In FIG. 3A, the MIN6 cells were plated onto 6-well plates and grown for 24 h. The cells were washed twice with KRB, and then incubated for 4 h at 37° C. in the KRB solution in the presence of [^3H]myristic acid. […] The data shown are the mean±S.D. from two independent assays by duplicate.
In FIG. 4A, the MIN6 cells were plated onto 6-well plates and grown for 24 h. The cells were washed twice with KRB, and then incubated for 4 h at 37° C. in the KRB solution in the presence of [^3H]myristic acid. […] The intensities of PBt spots after 1 min accumulation in the presence of 1-butanol were measured, and results were obtained by subtracting the corresponding intensities of spots obtained in the absence of 1-butanol. The data shown are the mean±S.D. from two independent assays by duplicate. *, P<0.05 compared with EGF-treated cells.

[3] = tested on: MIN6 cells; test: [Ca2+]i measurement in MIN6 cells (Fluo-3 AM, confocal microscope); assay type: cell-based, mouse
Procedure: Changes in intracellular Ca2+ levels were monitored using a Ca2+-sensitive dye under a confocal microscope. Cells were loaded with […] Fluo-3 AM for 40 min at room temperature. After washing with Krebs-Ringer bicarbonate (KRB; 129 mM NaCl, 5 mM NaHCO3, 4.8 mM KCl, 1.2 mM KH2PO4, 1.0 mM CaCl2, 1.2 mM MgSO4, 2.7 mM glucose, and 10 mM HEPES, pH 7.4) buffer, the cells were further incubated for 15 min in the absence of Fluo-3 AM to de-esterify the dye. To exclude the possible effects of dye loading, the present inventors normalized levels with saponin at the end of the experiments. To normalize, the present inventors measured the residual fluorescence (Fo) at the end of the experiment, and subtracted that from the fluorescence under experimental conditions (F). Excitation of Fluo-3 AM was performed at 488-nm by an argon laser, and the emission range was 515-nm. Images were captured on an inverted confocal microscope (Zeiss LSM 510 Meta, Oberkochen, Germany) with a 20× objective lens. The MIN6 cells were plated onto glass dishes or 24-well plates and grown for 24 h. The cells were washed twice with KRB supplemented with 0.2% BSA, and then incubated for 60 min at 37° C. in the KRB solution. In FIG. 2A, at the end of incubation, the solutions were replaced with fresh KRB containing Fluo-3 AM dissolved (1 mg/ml) in DMSO, and incubated for 1 h. […] Images were captured on an inverted confocal microscope with a 20× objective lens. To normalize, the present inventors measured the residual fluorescence (Fo) at the end of the experiment, and subtracted that from the fluorescence under experimental conditions (F). The data shown are the mean±S.E., n=7.

[4] = tested on: ICR mice; test: Plasma insulin levels in ICR mice after intravenous injection; assay type: in vivo, mouse; settings: glucose 0.5 g/kg
Procedure: (§2) Measurement of Plasma Glucose and Plasma Insulin Levels: 7- to 8-week-old male ICR mice were purchased from Hyochang Science (Seoul, Korea). C57BLKSJ-db/db mice were purchased from SLC (Japan). […] Concentrations of plasma glucose were measured by the glucose oxidase method with a portable glucose meter (Gluco-Dr, Korea). Plasma was separated by centrifugation and the plasma insulin assay was performed using a RIA kit. Animal care was conducted in accordance with our institution's guidelines.

[5] = tested on: mouse pancreatic islets; test: Insulin secretion assay in mouse pancreatic islets; assay type: cell-based; settings: 1 min treatment
Procedure: as §1
To prepare mouse pancreatic islets, pancreatic islets were isolated from 7- to 8-week-old male BALB/c mice (Hyochang Science, Korea), as described previously (Jonas J C, et al., Diabetes 47:1266-1273, 1998). Isolated islets were transferred onto a 12 well plate, with 10-15 islets per well. We used same number of islets in a same set of experiment. The islets were maintained for up to 2 days in RPMI1640 medium containing 5 mM glucose and 10% fetal calf serum, and supplemented with 100 µg/ml streptomycin and 100 U/ml penicillin.
The mouse pancreatic islets were plated onto 12-well plates and grown for 24 h. The islets were washed twice with KRB supplemented with 0.2% BSA, and then incubated for 60 min at 37° C. in the KRB solution. […]

[6] = tested on: C57BLKSJ-db/db mice; test: Plasma glucose levels in obese db/db mice after intravenous injection; assay type: in vivo, mouse; settings: EGF 50 μg/kg intravenous
Procedure: as §2

[7] = tested on: C57BLKSJ-db/db mice; test: Plasma insulin levels in obese db/db mice after intravenous injection; assay type: in vivo, mouse; settings: EGF 50 μg/kg intravenous, 10 min after injection
Procedure: as §2
Plasma insulin levels before and 10 min after injection were compared. […] All animals had free access to water. Animal care was conducted in accordance with our institution's guidelines.

[8] = tested on: RINm5F; test: Insulin release in RINm5F cell line (data not shown); assay type: cell-based

`CCCCO` [1-butanol, reference compound] was tested, and the “effect on EGF-induced insulin secretion” value ([1]; MIN6 cells) was “inhibited”.

For `CC(=O)OCOC(=O)CN(CC(=O)OCOC(C)=O)c1ccccc1OCCOc1ccccc1N(CC(=O)OCOC(C)=O)CC(=O)OCOC(C)=O` [BAPTA/AM, 1,2-Bis(2-aminophenoxy)ethane-N,N,N′,N′-tetraacetic acid tetrakis (acet-oxymethyl ester)], the “effect on EGF-induced PLD activity” value [2] was “inhibited most of the PLD activity”.

In the case of `O=C(O)CN(CCOCCOCCN(CC(=O)O)CC(=O)O)CC(=O)O` [EGTA], the “effect on EGF-stimulated extracellular Ca2+ influx” value ([3]; 30 min pre-incubation, then 15 nM EGF) is reported as “reduced” and the “effect on EGF-induced PLD activity” value [2] is reported as “inhibited most of the PLD activity”.

For `O=C[C@H](O)[C@@H](O)[C@H](O)[C@H](O)CO` [glucose, reference compound], the “time required for Ca2+ influx” value ([3]; data not shown) was 3 to 4 min and the plasma insulin levels [4] was “increased plasma insulin levels”.

With `CC(C)(C)O` [t-butanol, reference compound] the “effect on EGF-induced insulin secretion” value ([1]; MIN6 cells) was “but not by t-butanol treatment”.

With Epidermal growth factor [EGF] the “insulin levels at basal concentration of glucose” value ([1]; 2.7 mM glucose, 15 or 30 nM EGF, 5 min) was “increased insulin levels”, the “glucose-induced insulin release at high glucose levels” value ([1]; 11 mM glucose, 15 or 30 nM EGF, 5 min) was “additively increased glucose-induced insulin release” and the “effective time of EGF treatment for insulin secretion” value ([1]; MIN6 cells, 15 nM EGF) was 1 to 2 min. For the same molecule, the “kinetics of stimulation of insulin secretion” value ([1]; MIN6 cells, 15 nM EGF compared with 11 mM glucose) was “kinetics more rapid than glucose”, the “effective concentration of EGF for insulin secretion” value ([1]; MIN6 cells, 1 min incubation) was 1.5 to 15 nM and the insulin secretion ([1]; MIN6 cells, 1 min treatment) was “significantly increased insulin secretion”. For the same molecule, the “extracellular Ca2+ influx” value ([3]; MIN6 cells, 15 nM EGF) was “stimulated extracellular Ca2+ influx”, the “time to PLD activation by EGF stimulation” value ([2]; 15 nM EGF) was at most 2 min and the insulin secretion ([5]; 15 nM EGF) was “rapidly increased insulin secretion”. For the same molecule, the “specificity of the insulin secretion effect among growth factors” value ([5]; data not shown) was “specific among various growth factors”, the plasma insulin levels [4] was “increased plasma insulin levels” and the plasma glucose [6] was “reduced plasma glucose”. For the same molecule, the plasma insulin levels [7] was “increased plasma insulin levels” and the insulin release [8] was “could stimulate insulin release”.
